The results in this text go back to paper PMC4596688, “Structural determinants of nuclear export signal orientation in binding to exportin CRM1” (eLife, 2015).

One assay deals with CRM1 (Homo sapiens, UniProt O14980). Description: Competition differential bleaching assay monitored by microscale thermophoresis instrument (MBP-NES vs FITC-PKI^NES). Format: binding. Particulars: brackets = 68.3% confidence interval. The source says: To first investigate whether features of the sequence such as spacings between hydrophobic residues and placement of the ΦXΦ motif are critical in determining directionality of NES binding, we reversed the sequence of the hRio2^NES ([…]) to generate hRio2^NES-R ([…]). We also reversed CPEB4^NES ([…]) to generate CPEB4^NES-R ([…]). Both reversed peptides match the class 1a NES pattern and were predicted to bind CRM1 like the PKI^NES, which is another class 1a NES. Binding affinities of NES peptides to CRM1 were measured in competition differential bleaching experiments using FITC-PKI^NES as a fluorescent probe, MBP-NESs as competitors and monitored with a microscale thermophoresis instrument (Figure 4, Figure 4—figure supplement 1). Wild-type NESs MBP-hRio2^NES and MBP-CPEB4^NES bind CRM1 with KDs of 2200 nM [1600,2900] and 590 nM [400,840], respectively (Figure 4B). The ranges in brackets represent the 68.3% confidence intervals as calculated using F-statistics and error-surface projection method ([Bevington and Robinson, 1992]). […] All of the NES peptides were also cloned into EYFP-NLS-NES fusions and tested for nuclear export activity in HeLa cells.
Differential bleaching was used as a parameter to monitor binding of MBP-NES proteins to CRM1. In short, we observed that the fluorophore reporter attached to PKI^NES (FITC) underwent a reproducible time-dependent bleaching when exposed to excitation light (Figure 4—figure supplement 2). Furthermore, this phenomenon was concentration-dependent, that is, the bleaching was accelerated when the FITC-PKI^NES probe was exposed to increasing concentrations of CRM1. […] The differential bleaching can be counteracted by titrating of mixture of FITC-PKI^NES and CRM1 with a known competitor, MBP-PKI^NES, which competes directly with the fluorescent probe for the NES binding groove in CRM1. A sigmoidal appearance of the binding and competition isotherms is observed when differential bleaching, quantified as the average fluorescence at a time after bleaching normalized by the averaged fluorescence just after the beginning of bleaching, is plotted vs titrant concentration in a semilog graph (see Figure 4).This illustrates that this bleaching behavior can be described as a two-state system where unbound probe and CRM1-bound probe bleach at different but specific rates, and that these quantities report on the populations of bound and unbound FITC-PKI^NES. A detailed description of the data-fitting procedures will be described in manuscript in preparation by C.A.B. For error reporting, we used F-statistics and error-surface projection method to calculate the 68.3% confidence intervals of the fitted data ([Bevington and Robinson, 1992]). While error reporting using the error surface projection method is relatively uncommon, the ranges more accurately represent the true confidence intervals given the observed noise in the performed set of experiments because they explicitly account for the ability of the fitting algorithm to compensate for fitting defects by modifying correlated parameters. Thus, they provide better evaluation of the fitted data than other, more commonly used methods (e.g., error estimations from the parametric variance-covariance matrix).
All proteins used were subjected to an extra gel filtration step and dialysis overnight in TB buffer with 15% glycerol to remove possible aggregation and ensures buffer matching. The FITC-PKI^NES peptide (FITC-[…]) was chemically synthesized by GenScript, NJ and dissolved in the TB buffer with 15% glycerol. For the direct titration, ^HsCRM1 was serially diluted from 40 μM to 1.2 nM and incubated with mixture of 120 μM ^ScRan-GTP and 40 nM FITC-PKI^NES in 1:1 vol to a total volume of 20 μl, and incubated for 1 hr in the dark at room temperature. […]
On the technique in general: In MST a laser heats a spot of the sample, and binding alters the fluorescence response.

The subject of another assay is human CRM1. The experiment in a line: In vitro CRM1-NES pull-down binding assay (immobilized GST-NES). Particulars: immobilized GST-PKI^NES mutants, purified CRM1 and RanGTP; 2.5 μM HsCRM1, 7.5 μM ScRanGTP, 30 min 4°C; Coomassie-stained SDS/PAGE. Here is the method: After affinity purification, ^ScRan was loaded with GTP (incubated with molar excess of ethylenediaminetetraacetic acid (EDTA) for 30 min on ice followed by incubation with excess GTP and MgOAC for 30 min at room temperature) and then purified by ion exchange chromatography (HiTrap SP, GE Healthcare Life Sciences). NESs were cloned into the pGEX-TEV vector ([Chook and Blobel, 1999]), purified, and immobilized on glutathione Sepharose beads (GE Healthcare Life Sciences) in TB buffer described above containing 15% glycerol. 2.5 μM ^HsCRM1 and 7.5 μM ^ScRanGTP were added to ∼10 μg of immobilized GST-NESs in TB buffer in total volumes of 200 μl for 30 min at 4°C. Unbound proteins were washed extensively with TB buffer and bound proteins on the Sepharose beads were separated by sodium dodecyl sulfate polyacrylamide gel electrophoresis (SDS/PAGE) and visualized with Coomassie Blue staining. All binding assays were performed in triplicates. To compare the relative intensities of CRM1 bands to yield an estimate of binding activities of various NES mutants, SDS/PAGE gels were dried and scanned with an Epson V300 scanner and the images analyzed with ImageJ software. CRM1 band intensities were corrected for differences in GST-NESs band intensities and normalized to wild-type control intensity in each set of mutations. Corrected relative CRM1 band intensities were plotted as histograms with standard errors with GraphPad Prism.
To test putative minus NESs identified from the Dbase data set, 5 μM ^HsCRM1 with or without 15 μM ^ScRanGTP were used instead. Putative NESs that show no CRM1 binding were expressed in larger scale and purified by size-exclusion chromatography to assess their aggregation states. They were also subjected to intact mass determination by mass spectroscopy to ensure that the GST-NES proteins were not degraded.

Where [1] appears, read: Figure 4—figure supplement 1, shorter hRio2^NES (without C-terminal lysine and glycine) and CPEB4^NES (without C-terminal methionine and arginine) constructs, competition differential bleaching as E1, read-out: KD of shorter NES constructs binding to CRM1.
Where [2] appears, read: competition titration, MBP-NES 100 μM to 3 nM, 40 nM FITC-PKI^NES probe, 300 nM HsCRM1, 120 μM ScRan-GTP, mixed 1:1, TB buffer 15% glycerol, 0.05% Tween-20, 1.5 hr room temperature, triplicate titrations, read-out: KD (dissociation constant of NES binding to CRM1).

Like-named read-outs stand apart in the source and are kept apart here.

Sequence of CRM1 (O14980 whole entry, other chains not shown): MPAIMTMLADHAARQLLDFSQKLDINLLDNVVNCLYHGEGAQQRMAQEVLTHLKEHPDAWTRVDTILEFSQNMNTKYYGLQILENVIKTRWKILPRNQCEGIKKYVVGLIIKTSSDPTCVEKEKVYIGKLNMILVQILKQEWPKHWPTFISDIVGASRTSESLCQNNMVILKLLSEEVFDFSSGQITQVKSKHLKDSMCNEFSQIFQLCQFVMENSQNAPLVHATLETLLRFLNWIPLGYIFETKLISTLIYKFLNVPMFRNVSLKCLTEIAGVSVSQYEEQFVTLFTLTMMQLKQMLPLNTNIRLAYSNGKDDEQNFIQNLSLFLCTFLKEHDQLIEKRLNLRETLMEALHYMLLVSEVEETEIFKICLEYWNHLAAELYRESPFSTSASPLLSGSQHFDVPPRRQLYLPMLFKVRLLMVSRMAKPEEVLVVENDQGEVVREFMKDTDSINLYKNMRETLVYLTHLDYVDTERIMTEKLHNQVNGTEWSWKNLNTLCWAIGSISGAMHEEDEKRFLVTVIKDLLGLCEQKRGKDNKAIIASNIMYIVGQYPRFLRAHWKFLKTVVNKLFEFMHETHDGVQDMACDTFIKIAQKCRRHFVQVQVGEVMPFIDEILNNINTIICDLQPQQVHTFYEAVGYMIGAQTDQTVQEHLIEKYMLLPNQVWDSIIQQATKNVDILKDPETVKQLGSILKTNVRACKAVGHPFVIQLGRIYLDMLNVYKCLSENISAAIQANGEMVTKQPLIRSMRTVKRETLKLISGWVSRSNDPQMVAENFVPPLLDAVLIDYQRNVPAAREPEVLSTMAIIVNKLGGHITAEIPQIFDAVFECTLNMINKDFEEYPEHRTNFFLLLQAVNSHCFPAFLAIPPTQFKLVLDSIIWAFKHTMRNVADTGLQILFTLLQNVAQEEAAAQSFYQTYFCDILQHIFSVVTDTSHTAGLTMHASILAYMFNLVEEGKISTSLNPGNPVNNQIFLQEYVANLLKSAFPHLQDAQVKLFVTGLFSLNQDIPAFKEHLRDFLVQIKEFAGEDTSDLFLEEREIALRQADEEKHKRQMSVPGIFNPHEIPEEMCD

As to “GGSY^379RTFDMHSLESSLIDI^393 [CPEB4^NES, nuclear export signal of CPEB4 (residues 379-393), tested as MBP- or GST-fusion]”, the dissociation constant (Kd) (in general, the free concentration of one partner at which half of the binding sites on the other are occupied at equilibrium, for simple one-to-one binding) at CRM1 (setting [1]) is 1600 nM; at CRM1 (setting [2]), 590 nM.

In the case of GGSYGKIEELAQNFETMEFSR [hRio2^NES-R], the Kd on CRM1 (setting [2]) turned out to be 2400 nM.

In the case of GGSYRMIDILSSELSHMDFTR [CPEB4^NES-R], the Kd at CRM1 (setting [2]) came out at 780 nM.

As for “GGSY^389RSFEMTEFNQALEEI^403 [hRio2^NES, nuclear export signal of hRio2 (residues 389-403), tested as MBP- or GST-fusion]”, the Kd on CRM1 (setting [1]) was 1400 nM; at CRM1 (setting [2]), 2200 nM.

Turning to “GGSYRSFDMNELALKLAGLD [PKI^NES-Flip3, PKI^NES-Flip mutant with N-terminal FDM, GST-fusion]”, the “CRM1 binding in pull-down assay” value in the assay on human CRM1 is listed as “graded increases in CRM1 binding”.

Regarding “IDLNELALKLAGL [PKI^NES-Flip1, PKI^NES with inverted LDI at the N-terminus, GST-fusion]”, the “CRM1 binding in pull-down assay” value with human CRM1 was “does not interact with CRM1”.

On to “FDLNELALKLAGL [PKI^NES-Flip2, PKI^NES-Flip mutant with N-terminal FDL, GST-fusion]”, for which, in the assay on human CRM1, the “CRM1 binding in pull-down assay” value is “graded increases in CRM1 binding”.
